EP3733658B1, “PRENYLATED BENZOPYRANES AS PPAR AGONISTS” (Universitat de València, priority 2017, dated 2019)
Read-outs that look alike come from different tables or passages of the source.

Assays:
hPPARα = target: T1, hPPARα (Homo sapiens, UniProt Q07869); assay: PPAR/Gal4 chimera luciferase reporter transactivation assay in transiently transfected Cos-7 cells (hPPARα); type: cell-based; settings: for hPPARα Efficacy (%): maximum activity as percentage of the maximum activity of WY-14643; for Emax: COS-7, read-out: hPPARα Efficacy (%); for EC50: Cos-7 cells, 24 h, tested 0.001 to 10 µM, read-out: hPPARα EC50
T1 sequence (Q07869 167-468): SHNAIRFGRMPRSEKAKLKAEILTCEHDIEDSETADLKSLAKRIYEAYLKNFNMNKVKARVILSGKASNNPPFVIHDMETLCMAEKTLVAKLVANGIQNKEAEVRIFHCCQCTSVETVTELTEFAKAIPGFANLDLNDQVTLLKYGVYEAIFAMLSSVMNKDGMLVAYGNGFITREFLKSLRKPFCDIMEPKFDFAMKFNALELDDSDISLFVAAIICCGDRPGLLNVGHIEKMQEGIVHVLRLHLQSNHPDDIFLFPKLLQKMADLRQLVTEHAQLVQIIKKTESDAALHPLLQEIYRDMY
Protocol: (§1) The cells were maintained under standard culture conditions (Dulbecco modified minimum essential Eagle medium, DMEM) supplemented with 10% fetal calf serum (FCS) at 37°C in 5% […] CO2 atmosphere. The medium was changed every 2 days. The Cos-7 cells were seeded in 60 mm discs at a density of 5.5 × 10^5 cells/disc in DMEM supplemented with 10% FCS and incubated at 37°C for 16 h before transfection. The cells were transfected in DMEM using jetPEI, with reporter (pG5-TK-pGL3) and expression (pGal4-h, hPPARα or hPPARγ) plasmids. The expression plasmid pCMV-β-galactosidase was cotransfected as a control for transfection efficacy. After 16 h the transfection was stopped adding DMEM supplemented with 10% FCS, and the cells were trypsinised and seeded in 96-well plates and incubated for 6 h in DMEM containing 10% FCS. Subsequently, the cells were incubated for 24 h in DMEM containing 0.2% FCS and increasing concentrations of the compounds or the vehicle (DMSO, maximum concentration 0.1%) were tested. Finally, the cells were washed once with PBS cooled on ice, lysed and the luciferase and β-galactosidase assays were performed.
(§2) To evaluate the compounds for PPAR transcriptional activity, the tests were conducted in a PPAR/Gal4 chimera of a human luciferase reporter gene to determine the maximum transactivation response of each compound.

hPPARγ = target: T2, hPPARγ (Homo sapiens, UniProt P37231); assay: PPAR/Gal4 chimera luciferase reporter transactivation assay in transiently transfected Cos-7 cells (hPPARγ); type: cell-based; settings: for hPPARγ Efficacy (%): maximum activity as percentage of the maximum activity of rosiglitazone; for Emax: COS-7, read-out: hPPARγ Efficacy (%)
T2 sequence (P37231 238-505): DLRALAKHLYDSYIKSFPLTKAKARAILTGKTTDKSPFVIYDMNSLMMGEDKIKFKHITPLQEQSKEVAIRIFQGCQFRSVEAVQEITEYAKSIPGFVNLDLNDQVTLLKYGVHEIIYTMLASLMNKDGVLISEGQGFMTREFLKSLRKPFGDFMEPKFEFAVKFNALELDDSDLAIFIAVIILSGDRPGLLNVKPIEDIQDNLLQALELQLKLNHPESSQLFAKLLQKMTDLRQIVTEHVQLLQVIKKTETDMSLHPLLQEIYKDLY
Protocol: as §1, §2

human neutrophils [1] = assay: MTT colorimetric cell viability assay, neutrophils; type: cell-based; settings: 30 µM, 24 h
Protocol: (§3) To evaluate potential adverse effects (cytotoxicity) of the compounds of the invention, the compounds 1 and 2 for use according to the present invention, compound 8 of the invention, and the reference compounds were evaluated at concentrations of 30 and 100 µM in human neutrophils (Fig. 1A) and primary cultures of human umbilical vein endothelial cells (HUVEC) (Fig. 1B) using two different techniques: MTT colorimetry assay and flow cytometry analysis for cellular apoptosis and survival. In addition, the synthetic compound 9 of the invention was evaluated at 10, 30 and 100 µM (Fig. 2).
(§4) MTT assay. The viability of neutrophils and HUVEC was determined by the MTT colorimetric assay MTT (3(4,5-dimethylthiazol-2-yl)-2,5-diphenyltetrazoyl bromide).
Neutrophils were obtained from the leukocyte-platelet fraction (buffy coats) of healthy donors by centrifuging with Ficoll-Hypaque density gradient.
(§5) 100 µL of neutrophils and HUVEC (2 × 10^5 cells/mL) suspension in supplemented RPMI medium were added to each well of a 96-well plate. The cells were incubated in absence and/or presence of the compounds at 37°C for24h. An MTT solution was prepared (2 mg/mL in PBS). 100 µL of the MTT solution were added to each well and incubated at 37°C for an additional 3 h. The supernatants were discarded and 200 µL of DMSO were added to each well to dissolve the precipitated formazan. The optical densities at two wavelengths (560 and 630 nm) were measured in a spectrophotometer (Infinite M200, Tecan, Mannedorf, Switzerland).

[2] = Treatment of ob/ob mice: plasma metabolites (cholesterol, HDL-c, triglycerides, free fatty acids, ALT, AST); type: in vivo; settings: oral, 4 days
Protocol: […]. […] […].
Free fatty acids (FFA) in plasma, and the enzymes aspartate aminotransferase (AST) and alanine aminotransferase (ALT) were determined with a colorimetric assay kit (Sigma-Aldrich, Madrid, Spain). In addition the plasma lipid levels for total cholesterol and triglycerides (TG) were measured by enzymatic methods (WAKO, Cape Charles, VA). The concentration of HDLcholesterol (HDL-c) was also determined with the same method used to measure total cholesterol, after precipitating the apolipoprotein-B (apoB) with dextran sulphate/MgCl2 (Sigma-Aldrich, Madrid, Spain) as previously described (Zieske et al., 2005).

[3] = tested on: human umbilical vein endothelial cells (HUVEC); assay: MTT colorimetric cell viability assay, HUVEC; type: cell-based; settings: 30 µM, 24 h
Protocol: as §3, §4
Human umbilical vein endothelial cells (HUVEC) were isolated with the collagenase treatment and maintained in a human specific endothelial base medium (EBM-2) supplemented with endothelial growth medium (EGM-2) and 10% FCS. Cells of the first passage were cultured until their confluence in 24-well plates. Before starting each experiment, the cells were incubated for 24 h in a medium containing 1% FBS.
as §5

HUVEC = assay: Annexin V / propidium iodide flow cytometry of apoptosis and survival, HUVEC; type: cell-based, human; settings: 24 h; for apoptosis and survival: 30 µM; for reduced cell survival: 100 µM
Protocol: (§6) In addition, the apoptosis and survival rate for human neutrophils and HUVEC was determined by double staining with annexin V and propidium iodide (PI) by flow cytometry.
(§7) Cytofluorometric analysis of apoptosis and survival. The kit FITC Annexin V Apoptosis Detection kit (BD Bioscience, San Jose, CA) was used. The staining protocol and all the reagents were supplied with the commercial kit. HUVEC were separated from the culture flasks by accutase (StemPro® Accutase® Cell dissociation reagent, Thermofischer Scientific Waltham, MA). Both cell types were incubated at 37°C for 24h in the presence or absence of the test compounds. Confluent HUVEC and freshly isolated neutrophils were washed, resuspended in binding buffer 1x (1 × 10^6 cells/mL) and stained with annexin V conjugated with FITC and propidium iodide (PI) as described in the manufacturer's instructions. The cells were analyzed in a BD FACSVerse Flow Cytometer (BD Biosciences, San Jose, CA) and differentiated as early apoptosis cells (annexin V^+ and PI^-), late apoptosis cells and/or necrotic cells (annexin V^+ and PI^+), and live cells (annexin V^- and PI^-).

human neutrophils [4] = assay: Annexin V / propidium iodide flow cytometry of apoptosis and survival, neutrophils; type: cell-based; settings: 100 µM, 24 h, compared to the vehicle
Protocol: as §6, §7

[5] = Cos-7 cells, 24 h, tested 0.001 to 10 µM, read-out: hPPARγ EC50

| Compound | Emax (hPPARα) [%] | Emax (hPPARγ) [%] | EC50 (hPPARγ; [5]) [nM] | further results |
| --- | --- | --- | --- | --- |
| CCOC(=O)C(=CCCC1(C)CCc2cc(OCc3ccccc3)ccc2O1)OCC(F)(F)F (stereo not shown) [Compound 13] |  |  |  | hPPARα Efficacy (%) (hPPARα): 166%; EC50 (hPPARγ): 400 nM; hPPARγ Efficacy (%) (hPPARγ): 39% |
| Cc1cccc(Nc2cc(Cl)nc(SCC(=O)O)n2)c1C [WY-14643, reference compound] |  |  |  | cytotoxicity (MTT) (human neutrophils [1]): 9%; triglyceride levels in plasma (in words) [2]: decrease of triglyceride levels in plasma, although not in a significant manner; increase of total cholesterol levels with respect to the control group ([2]; plasma, 30 mg/Kg/d): 64%; HDL-c with respect to the control group ([2]; plasma, compound 9 10 and 30 mg/Kg/d, WY-14643 30 mg/Kg/d): significantly increased |
| COc1cc(C)c2c(c1)CCC(C)(CC/C=C(\C)CC/C=C(\C)C(=O)O)O2 (stereo not shown) [Polycerasoidin, 2, polycerasoidin] | 82 | 55 | 1000 | toxicity (MTT) [3]: showed toxicity; EC50 (hPPARα): 1000 nM; toxicity (MTT) (human neutrophils [1]): showed toxicity; apoptosis and survival (HUVEC): some significant effects; reduced cell survival (HUVEC): 38,9% |
| CN(CCOc1ccc(CC2SC(=O)NC2=O)cc1)c1ccccn1 (stereo not shown) [Rosiglitazone, rosiglitazone, reference compound] |  |  |  | apoptosis and survival (HUVEC): some significant effects; reduced cell survival (HUVEC): 79,2%; effect on cell survival (human neutrophils [4]): 8.5% |
| COC(=O)COC(=O)/C(C)=C/CC/C(C)=C/CCC1(C)CCc2cc(OC)cc(C)c2O1 (stereo not shown) [Compound 8] | 39 | 24 | 12 | toxicity (MTT) [3]: showed toxicity; toxicity (MTT) (human neutrophils [1]): showed toxicity; apoptosis and survival (HUVEC): some significant effects; reduced cell survival (HUVEC): 61,3%; effect on cell survival (human neutrophils [4]): 5.3% |
| COC(=O)C(C)=CCCC(C)=CCCC1(C)CCc2cc(O)cc(C)c2O1 (stereo not shown) [Compound 5] |  |  | 574 | hPPARα Efficacy (%) (hPPARα): 27%; hPPARγ Efficacy (%) (hPPARγ): 35% |
| CCO/C(=C\CC/C(C)=C/CCC1(C)CCc2cc(OCc3ccccc3)ccc2O1)C(=O)O (stereo not shown) [Compound 11] | 96 | 62 | 300 | EC50 (hPPARα): 1500 nM |
| COC(=O)COC(=O)/C(C)=C/CC/C(C)=C/CCC1(C)CCc2cc(OC(=O)c3ccccc3)cc(C)c2O1 (stereo not shown) [Compound 6] | 14 | 0 |  |  |
| CCOC(=O)/C(=C/CC/C(C)=C/CCC1(C)CCc2cc(OCc3ccccc3)ccc2O1)OCC (stereo not shown) [Compound 10] | 60 | 183 | 2000 |  |
| COC(=O)C(OC(=O)/C(C)=C/CC/C(C)=C/CCC1(C)CCc2cc(OC)cc(C)c2O1)C(=O)OC (stereo not shown) [Compound 7] | 76 | 37 |  |  |
| CCCOC(=O)/C(C)=C/CC/C(C)=C/CCC1(C)CCc2cc(O)cc(C)c2O1 (stereo not shown) [Compound 3] | 100 | 86 |  |  |
| C/C(=C\CCC1(C)CCc2cc(OCC(N)=O)cc(C)c2O1)CC/C=C(\C)C(=O)OCc1ccccc1 (stereo not shown) [Compound 4a] | 18 | 0 |  |  |
| C/C(=C\CCC1(C)CCc2cc(OCc3ccccc3)cc(C)c2O1)CC/C=C(\C)C(=O)OCc1ccccc1 (stereo not shown) [Compound 4b] | 28 | 0 |  |  |
| CCOC(=O)/C(=C/CC/C(C)=C/CCC1(C)CCc2cc(OCc3ccc(F)cc3)ccc2O1)OCC (stereo not shown) [Compound 12] | 113 | 183 | 2000 |  |
